Source: BigSolDB 2.1

O=Cc1ccc(O)cc1
Details | solubility (mole fraction)
in 1,4-dioxane, 283.15 K | 0.0467
in 1,4-dioxane, 285.65 K | 0.0555
in 1,4-dioxane, 288.15 K | 0.0655
in 1,4-dioxane, 290.65 K | 0.0772
in 1,4-dioxane, 293.15 K | 0.0905
in 1,4-dioxane, 295.65 K | 0.106
in 1,4-dioxane, 298.15 K | 0.123
in 1,4-dioxane, 300.65 K | 0.141
in 1,4-dioxane, 303.15 K | 0.163
in 1,4-dioxane, 305.65 K | 0.186
in 1,4-dioxane, 308.15 K | 0.211
in 1,4-dioxane, 310.65 K | 0.238
in 1,4-dioxane, 313.15 K | 0.267
in 1,4-dioxane, 315.65 K | 0.299
in 1,4-dioxane, 318.15 K | 0.334
in 2-butanone, 278.15 K | 0.0731
in 2-butanone, 280.65 K | 0.0822
in 2-butanone, 283.15 K | 0.0911
in 2-butanone, 285.65 K | 0.101
in 2-butanone, 288.15 K | 0.111
in 2-butanone, 290.65 K | 0.123
in 2-butanone, 293.15 K | 0.135
in 2-butanone, 295.65 K | 0.148
in 2-butanone, 298.15 K | 0.163
in 2-butanone, 300.65 K | 0.177
in 2-butanone, 303.15 K | 0.194
in 2-butanone, 305.65 K | 0.21
in 2-butanone, 308.15 K | 0.229
in 2-butanone, 310.65 K | 0.247
in 2-butanone, 313.15 K | 0.267
in 2-butanone, 315.65 K | 0.288
in 2-butanone, 318.15 K | 0.309
in DMF, 278.15 K | 0.0741
in DMF, 280.65 K | 0.0863
in DMF, 283.15 K | 0.0997
in DMF, 285.65 K | 0.114
in DMF, 288.15 K | 0.131
in DMF, 290.65 K | 0.148
in DMF, 293.15 K | 0.168
in DMF, 295.65 K | 0.191
in DMF, 298.15 K | 0.214
in DMF, 300.65 K | 0.241
in DMF, 303.15 K | 0.27
in DMF, 305.65 K | 0.302
in DMF, 308.15 K | 0.338
in DMF, 310.65 K | 0.376
in DMF, 313.15 K | 0.416
in DMF, 315.65 K | 0.458
in DMF, 318.15 K | 0.504
in acetone, 278.15 K | 0.0713
in acetone, 280.65 K | 0.0796
in acetone, 283.15 K | 0.0889
in acetone, 285.65 K | 0.0986
in acetone, 288.15 K | 0.109
in acetone, 290.65 K | 0.12
in acetone, 293.15 K | 0.133
in acetone, 295.65 K | 0.145
in acetone, 298.15 K | 0.159
in acetone, 300.65 K | 0.174
in acetone, 303.15 K | 0.189
in acetone, 305.65 K | 0.205
in acetone, 308.15 K | 0.222
in acetone, 310.65 K | 0.24
in acetone, 313.15 K | 0.259
in acetone, 315.65 K | 0.279
in acetone, 318.15 K | 0.299
in acetonitrile, 278.15 K | 0.0318
in acetonitrile, 280.65 K | 0.036
in acetonitrile, 283.15 K | 0.0405
in acetonitrile, 285.65 K | 0.0454
in acetonitrile, 288.15 K | 0.0508
in acetonitrile, 290.65 K | 0.0567
in acetonitrile, 293.15 K | 0.0632
in acetonitrile, 295.65 K | 0.0704
in acetonitrile, 298.15 K | 0.0782
in acetonitrile, 300.65 K | 0.0867
in acetonitrile, 303.15 K | 0.0957
in acetonitrile, 305.65 K | 0.106
in acetonitrile, 308.15 K | 0.116
in acetonitrile, 310.65 K | 0.128
in acetonitrile, 313.15 K | 0.14
in acetonitrile, 315.65 K | 0.154
in acetonitrile, 318.15 K | 0.168
in ethanol, 278.15 K | 0.043
in ethanol, 280.65 K | 0.0493
in ethanol, 283.15 K | 0.0563
in ethanol, 285.65 K | 0.0639
in ethanol, 288.15 K | 0.0725
in ethanol, 290.65 K | 0.0815
in ethanol, 293.15 K | 0.0914
in ethanol, 295.65 K | 0.102
in ethanol, 298.15 K | 0.115
in ethanol, 300.65 K | 0.128
in ethanol, 303.15 K | 0.142
in ethanol, 305.65 K | 0.156
in ethanol, 308.15 K | 0.173
in ethanol, 310.65 K | 0.191
in ethanol, 313.15 K | 0.209
in ethanol, 315.65 K | 0.227
in ethanol, 318.15 K | 0.247
in ethyl acetate, 278.15 K | 0.0708
in ethyl acetate, 280.65 K | 0.0787
in ethyl acetate, 283.15 K | 0.0877
in ethyl acetate, 285.65 K | 0.0968
in ethyl acetate, 288.15 K | 0.106
in ethyl acetate, 290.65 K | 0.117
in ethyl acetate, 293.15 K | 0.129
in ethyl acetate, 295.65 K | 0.141
in ethyl acetate, 298.15 K | 0.155
in ethyl acetate, 300.65 K | 0.169
in ethyl acetate, 303.15 K | 0.184
in ethyl acetate, 305.65 K | 0.2
in ethyl acetate, 308.15 K | 0.216
in ethyl acetate, 310.65 K | 0.234
in ethyl acetate, 313.15 K | 0.251
in ethyl acetate, 315.65 K | 0.272
in ethyl acetate, 318.15 K | 0.293
in isopropanol, 278.15 K | 0.0535
in isopropanol, 280.65 K | 0.0607
in isopropanol, 283.15 K | 0.0683
in isopropanol, 285.65 K | 0.0773
in isopropanol, 288.15 K | 0.0868
in isopropanol, 290.65 K | 0.0972
in isopropanol, 293.15 K | 0.109
in isopropanol, 295.65 K | 0.121
in isopropanol, 298.15 K | 0.134
in isopropanol, 300.65 K | 0.148
in isopropanol, 303.15 K | 0.164
in isopropanol, 305.65 K | 0.18
in isopropanol, 308.15 K | 0.198
in isopropanol, 310.65 K | 0.218
in isopropanol, 313.15 K | 0.238
in isopropanol, 315.65 K | 0.259
in isopropanol, 318.15 K | 0.281
in methanol, 278.15 K | 0.0342
in methanol, 280.65 K | 0.0392
in methanol, 283.15 K | 0.0449
in methanol, 285.65 K | 0.0516
in methanol, 288.15 K | 0.0587
in methanol, 290.65 K | 0.0668
in methanol, 293.15 K | 0.076
in methanol, 295.65 K | 0.0858
in methanol, 298.15 K | 0.0969
in methanol, 300.65 K | 0.109
in methanol, 303.15 K | 0.121
in methanol, 305.65 K | 0.136
in methanol, 308.15 K | 0.151
in methanol, 310.65 K | 0.168
in methanol, 313.15 K | 0.186
in methanol, 315.65 K | 0.205
in methanol, 318.15 K | 0.224
in n-butanol, 278.15 K | 0.0545
in n-butanol, 280.65 K | 0.0615
in n-butanol, 283.15 K | 0.0692
in n-butanol, 285.65 K | 0.0775
in n-butanol, 288.15 K | 0.0864
in n-butanol, 290.65 K | 0.0963
in n-butanol, 293.15 K | 0.107
in n-butanol, 295.65 K | 0.118
in n-butanol, 298.15 K | 0.13
in n-butanol, 300.65 K | 0.143
in n-butanol, 303.15 K | 0.157
in n-butanol, 305.65 K | 0.171
in n-butanol, 308.15 K | 0.187
in n-butanol, 310.65 K | 0.203
in n-butanol, 313.15 K | 0.22
in n-butanol, 315.65 K | 0.239
in n-butanol, 318.15 K | 0.259
in n-propanol, 278.15 K | 0.0532
in n-propanol, 280.65 K | 0.0597
in n-propanol, 283.15 K | 0.0669
in n-propanol, 285.65 K | 0.0751
in n-propanol, 288.15 K | 0.0836
in n-propanol, 290.65 K | 0.093
in n-propanol, 293.15 K | 0.103
in n-propanol, 295.65 K | 0.114
in n-propanol, 298.15 K | 0.125
in n-propanol, 300.65 K | 0.138
in n-propanol, 303.15 K | 0.151
in n-propanol, 305.65 K | 0.165
in n-propanol, 308.15 K | 0.18
in n-propanol, 310.65 K | 0.196
in n-propanol, 313.15 K | 0.213
in n-propanol, 315.65 K | 0.23
in n-propanol, 318.15 K | 0.249
in toluene, 278.15 K | 0.000979
in toluene, 280.65 K | 0.00109
in toluene, 283.15 K | 0.00119
in toluene, 285.65 K | 0.00133
in toluene, 288.15 K | 0.00146
in toluene, 290.65 K | 0.00162
in toluene, 293.15 K | 0.00178
in toluene, 295.65 K | 0.00197
in toluene, 298.15 K | 0.00217
in toluene, 300.65 K | 0.00236
in toluene, 303.15 K | 0.00259
in toluene, 305.65 K | 0.00283
in toluene, 308.15 K | 0.00309
in toluene, 310.65 K | 0.0034
in toluene, 313.15 K | 0.00367
in toluene, 315.65 K | 0.00399
in toluene, 318.15 K | 0.00435
